From US12508225B2, “Lipid compound and use thereof in delivery of nucleic acid” (BEIJING TRICISIONBIO THERAPEUTICS INC., priority 2021, dated 2025) come the findings set out here.

The data set in a line: TNS dye-binding assay for dissociation constant (pKa). It counts as physicochemical. An excerpt: Ionizable lipids have two main roles: binding to nucleic acids and allowing the release of the nucleic acid molecules in cells.

In turn, `CCCCC/C=C\C/C=C\CCCCCCC(O)CNCCN(C)CCN(CC(O)CCCCCC/C=C\C/C=C\CCCCC)CC(O)CCCCCC/C=C\C/C=C\CCCCC` (stereo not shown) [II-37] returned a pKa of 6.81.
